According to patent US20230331785A1 (priority 2018, published 2023):

How the values were obtained:
Conditions in all cases: human
[1] = tested on: HER2 positive HCC1954 cells
[2] = tested on: HER2 positive JIMT-1 cells
HCC1569 cells = tested on: HCC1569 cells
NCI-N87 cells = tested on: NCI-N87 cells
[3] = tested on: HER2 positive NCI/ADR-RES cells (NCI/ADR-RES-HER2+)

## CS(=O)(=O)CCNCc1ccc(-c2ccc3ncnc(Nc4ccc(OCc5cccc(F)c5)c(Cl)c4)c3c2)o1 [lapatinib]
[1]
  In Vitro Cytotoxicity CD50, HCC1954: 786 nM
[2]
  In Vitro Cytotoxicity CD50, JIMT-1: 5,650 nM
HCC1569 cells
  In Vitro Cytotoxicity CD50, HCC1569: 885 nM
NCI-N87 cells
  In Vitro Cytotoxicity CD50, NCI-N87: 112 nM
[3]
  In Vitro Cytotoxicity CD50, NCI/ADR-RES-HER2+: 2,704 nM
